Results on 17 molecules are retold here after US8003660B2, “Modulators of muscarinic receptors” (Vertex Pharmaceuticals Incorporated, priority 2006, dated 2011).

A value given as a limit tells only on which side of the number the result lay.

Holding throughout (format): cell-based
Test [1] addresses T1, M3 muscarinic receptor (Homo sapiens, UniProt P20309).
T1 construct: expressed in transfected cells; host or cells: CHO (M3-CHO)
The test is described as follows: Functional mobilization of intracellular calcium (FLIPR) in CHO cells expressing M3. To be noted: for EC50: CHO cells expressing M3, FLIPR calcium; for Emax: CHO, 100% = maximum response obtained with the Carbachol control, read-out: M3 Efficacy. The method in brief:
(§1)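 Calcium flux is read on FLIPR over 60 sec at 488/540 nm in muscarinic-receptor CHO lines. Antagonist mode adds carbachol at EC80 after 15 min compound preincubation or with simultaneous co-application. Agonist mode adds compound alone. Cells carry Fluo-3 or Calcium 3 dye in probenecid-containing pH 7.4 buffer, 0.5% DMSO final.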
For orientation: Calcium assays in cells follow changes in intracellular calcium, usually with a dye or a luminescent sensor.

The target in test [2] is T2, M2 muscarinic receptor (Homo sapiens, UniProt P08172).
T2 construct: expressed in transfected cells; host or cells: CHO (M2-CHO)
T2 sequence (P08172 1-466): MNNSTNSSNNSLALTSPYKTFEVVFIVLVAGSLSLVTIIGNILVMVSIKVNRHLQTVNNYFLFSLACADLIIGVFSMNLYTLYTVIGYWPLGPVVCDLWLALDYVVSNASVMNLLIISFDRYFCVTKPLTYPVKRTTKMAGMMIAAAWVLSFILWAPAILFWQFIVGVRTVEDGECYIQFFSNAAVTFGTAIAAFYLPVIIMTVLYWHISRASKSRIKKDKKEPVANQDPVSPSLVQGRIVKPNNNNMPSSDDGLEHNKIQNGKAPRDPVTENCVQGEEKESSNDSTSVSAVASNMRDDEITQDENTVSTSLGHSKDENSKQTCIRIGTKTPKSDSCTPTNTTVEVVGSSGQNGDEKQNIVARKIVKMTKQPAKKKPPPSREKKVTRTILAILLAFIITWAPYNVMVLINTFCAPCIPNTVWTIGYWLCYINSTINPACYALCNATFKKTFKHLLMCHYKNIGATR
As to the kind of experiment: Functional mobilization of intracellular calcium (FLIPR) in CHO cells expressing M2. To be noted: for EC50: CHO cells expressing M2, FLIPR calcium; for Emax: CHO, 100% = maximum response obtained with the Carbachol control, read-out: M2 Efficacy. The method in brief:
as §1

Test [3] deals with T3, M1 muscarinic receptor (Homo sapiens, UniProt P11229).
T3 construct: expressed in transfected cells; host or cells: CHO (M1-CHO)
T3 sequence (P11229 1-460): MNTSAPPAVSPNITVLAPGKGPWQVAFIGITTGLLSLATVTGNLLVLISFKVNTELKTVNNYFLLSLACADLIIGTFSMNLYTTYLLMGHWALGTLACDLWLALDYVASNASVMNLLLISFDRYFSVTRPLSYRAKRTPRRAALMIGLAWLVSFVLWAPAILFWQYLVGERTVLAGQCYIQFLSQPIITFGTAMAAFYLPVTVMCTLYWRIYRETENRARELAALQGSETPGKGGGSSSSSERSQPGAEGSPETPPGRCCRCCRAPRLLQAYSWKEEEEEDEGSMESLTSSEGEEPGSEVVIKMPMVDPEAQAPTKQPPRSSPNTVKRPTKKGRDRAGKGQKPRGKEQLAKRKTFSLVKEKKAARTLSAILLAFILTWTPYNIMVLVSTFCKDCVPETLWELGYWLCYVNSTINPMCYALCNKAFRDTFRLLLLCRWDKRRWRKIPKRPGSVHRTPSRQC
As to the kind of experiment: Functional mobilization of intracellular calcium (FLIPR) in CHO cells expressing M1. To be noted: for EC50: CHO cells expressing M1, FLIPR calcium; for Emax: CHO, 100% = maximum response obtained with the Carbachol control, read-out: M1 Efficacy. The method in brief: as §1

Test [4] addresses T4, M4 muscarinic receptor (Homo sapiens, UniProt P08173).
T4 construct: expressed in transfected cells; host or cells: CHO (M4-CHO)
T4 sequence (P08173 1-479): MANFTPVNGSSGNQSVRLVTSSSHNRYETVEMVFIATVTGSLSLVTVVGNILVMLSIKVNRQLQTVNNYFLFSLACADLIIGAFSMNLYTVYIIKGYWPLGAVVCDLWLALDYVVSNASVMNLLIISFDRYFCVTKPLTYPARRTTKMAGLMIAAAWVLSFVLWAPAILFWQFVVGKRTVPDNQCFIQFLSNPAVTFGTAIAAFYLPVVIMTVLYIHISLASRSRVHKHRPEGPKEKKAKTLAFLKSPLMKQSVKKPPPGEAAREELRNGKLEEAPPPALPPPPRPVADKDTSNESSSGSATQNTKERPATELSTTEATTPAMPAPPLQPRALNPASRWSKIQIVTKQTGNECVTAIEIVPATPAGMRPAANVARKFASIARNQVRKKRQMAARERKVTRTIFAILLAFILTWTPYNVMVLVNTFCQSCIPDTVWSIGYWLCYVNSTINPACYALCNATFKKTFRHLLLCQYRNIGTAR
As to the kind of experiment: Functional mobilization of intracellular calcium (FLIPR) in CHO cells expressing M4. To be noted: for EC50: CHO cells expressing M4, FLIPR calcium; for Emax: CHO, 100% = maximum response obtained with the Carbachol control, read-out: M4 Efficacy. The method in brief:
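Read-out: FLIPR fluorescence (ex 488, em 540 nm) over 60 s. Recombinant CHO lines are dye-loaded (Fluo-3 AM or Calcium 3) with 1 mM probenecid. For antagonist mode, compound is pre-incubated 15 min, or co-applied, then carbachol is added at 3× EC80 per subtype.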

T1 sequence (P20309 whole entry): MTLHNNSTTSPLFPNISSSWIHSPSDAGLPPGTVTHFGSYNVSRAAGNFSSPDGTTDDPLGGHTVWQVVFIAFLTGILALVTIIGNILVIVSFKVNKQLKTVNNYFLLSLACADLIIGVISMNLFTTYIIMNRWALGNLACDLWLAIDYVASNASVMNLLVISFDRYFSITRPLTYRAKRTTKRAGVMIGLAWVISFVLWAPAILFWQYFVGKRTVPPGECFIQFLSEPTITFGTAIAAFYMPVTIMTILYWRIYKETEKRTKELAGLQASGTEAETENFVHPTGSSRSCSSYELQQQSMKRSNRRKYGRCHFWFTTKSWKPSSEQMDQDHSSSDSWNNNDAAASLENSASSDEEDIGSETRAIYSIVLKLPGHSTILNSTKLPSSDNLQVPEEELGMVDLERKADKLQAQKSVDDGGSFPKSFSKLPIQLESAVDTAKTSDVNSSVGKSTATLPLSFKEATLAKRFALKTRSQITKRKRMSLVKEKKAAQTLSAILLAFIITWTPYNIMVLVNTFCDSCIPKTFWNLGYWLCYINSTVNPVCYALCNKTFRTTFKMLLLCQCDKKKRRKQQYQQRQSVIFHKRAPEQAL

In the case of `CC#CCN(C(C)=O)[C@H]1CCC2(CCN(CCC(C)(C)C)CC2)c2ccccc21` [compound 43], the concentration for a half-maximal effect (EC50) in test [1] is above 5 µM; in test [2], below 2 µM; in test [3], below 2 µM; in test [4], below 2 µM. Moreover, the Emax in test [1] was below 25%; in test [2], 25 to 100%; in test [3], 25 to 100%; in test [4], 25 to 100%.

Turning to `CCN(C(=O)C1CCC(=O)C1)[C@H]1CCC2(CCN(CCC(C)(C)C)CC2)c2ccccc21` (stereo partly shown) [compound 44], the EC50 was above 5 µM in test [1], above 5 µM in test [2], 2 to 5 µM in test [3] and below 2 µM in test [4]. Further, the Emax in test [1] is below 25%; in test [2], below 25%; in test [3], 25 to 100%; in test [4], 25 to 100%.

For `CC(=O)N[C@H]1CCC2(CCN(CCC(C)CC(C)(C)C)CC2)c2ccccc21` (stereo partly shown) [compound 45], the EC50 was above 5 µM in test [1], 2 to 5 µM in test [2], below 2 µM in test [3] and above 5 µM in test [4]. Also, the Emax in test [1] is 25 to 100%; in test [2], below 25%; in test [3] it was 25 to 100%; in test [4], below 25%.

With `CC(=O)N[C@H](C)C(=O)N[C@H]1CCC2(CCN(CCC(C)(C)C)CC2)c2cc(F)ccc21` [compound 46], the EC50 in test [1] was above 5 µM; in test [2], below 2 µM; in test [3], below 2 µM; in test [4], below 2 µM. Moreover, the Emax is below 25% in test [1], 25 to 100% in test [2], 25 to 100% in test [3] and 25 to 100% in test [4].

Take `CC(=O)N(C(C)C)[C@H]1CCC2(CCN(CCC(C)C)CC2)c2ccccc21` [compound 47]: the half-maximal effective concentration (EC50) in test [1] is above 5 µM; in test [2], above 5 µM; in test [3], 2 to 5 µM; in test [4], 2 to 5 µM. Also, the Emax in test [1] was below 25%; in test [2] it was below 25%; in test [3], 25 to 100%; in test [4], 25 to 100%.

For the molecule `CCCC(CCC)N1CCC2(CC[C@H](NC(=O)C3CC3)c3ccccc32)CC1` [compound 48], the EC50 in test [1], in test [2], in test [3] and in test [4] was above 5 µM each time. For the same molecule, the Emax in test [1], in test [2], in test [3] and in test [4] was below 25% each time.

As to `CSC(C)CCN1CCC2(CC[C@H](NC(C)=O)c3ccccc32)CC1` (stereo partly shown) [compound 49], the EC50 was above 5 µM in test [1], above 5 µM in test [2], 2 to 5 µM in test [3] and below 2 µM in test [4]. Moreover, the Emax in test [1] was below 25%; in test [2] it was below 25%; in test [3], 25 to 100%; in test [4], 25 to 100%.

As to `COC(=O)CN(C(C)=O)[C@H]1CCC2(CCN(CCC(C)(C)C)CC2)c2ccccc21` [compound 50], the concentration for a half-maximal effect (EC50) in test [1] was above 5 µM; in test [2], above 5 µM; in test [3] it was above 5 µM; in test [4], below 2 µM. Also, the Emax is below 25% in test [1], below 25% in test [2], 25 to 100% in test [3] and 25 to 100% in test [4].

As to `CN(C)C(=O)N(C)[C@H]1CCC2(CCN(CCC(C)(C)C)CC2)c2ccccc21` [compound 51], the EC50 in test [1] was above 5 µM; in test [2], above 5 µM; in test [3], below 2 µM; in test [4], below 2 µM. Further, the Emax is below 25% in test [1], below 25% in test [2], 25 to 100% in test [3] and 25 to 100% in test [4].

With `C[C@H](C(=O)N[C@H]1CCC2(CCN(CCC(C)(C)C)CC2)c2cc(F)ccc21)N1CCCC1=O` [compound 52], the EC50 was above 5 µM in test [1], below 2 µM in test [2], below 2 µM in test [3] and below 2 µM in test [4]. The Emax was below 25% in test [1], below 25% in test [2], 25 to 100% in test [3] and 25 to 100% in test [4].

As to `CC(CC(C)(C)C)N1CCC2(CC[C@H](NC(=O)N(C)C)c3ccccc32)CC1` (stereo partly shown) [compound 53], the EC50 in test [1] was above 5 µM; in test [2], above 5 µM; in test [3], above 5 µM; in test [4] it was below 2 µM. Besides, the Emax is below 25% in test [1], below 25% in test [2], below 25% in test [3] and 25 to 100% in test [4].

As to `CCN(C(=O)CCC(C)=O)[C@H]1CCC2(CCN(CCC(C)(C)C)CC2)c2ccccc21` [compound 54], the concentration giving a half-maximal response (EC50) was above 5 µM in test [1], above 5 µM in test [2], below 2 µM in test [3] and below 2 µM in test [4]. The Emax in test [1] is below 25%; in test [2], below 25%; in test [3], 25 to 100%; in test [4] it was 25 to 100%.

With `CC(C)(C)CCN1CCC2(CC[C@@H](NC(=O)C3CCCN(C(=O)C4CC4)C3)c3ccccc32)CC1` (stereo partly shown) [compound 55], the EC50 was above 5 µM in test [1], below 2 µM in test [2], 2 to 5 µM in test [3] and below 2 µM in test [4]. Further, the Emax was below 25% in test [1], below 25% in test [2], below 25% in test [3] and 25 to 100% in test [4].

With `CC[C@@H](C)CN1CCC2(CC[C@H](NC(C)=O)c3ccccc32)CC1` [compound 56], the half-maximal effective concentration (EC50) is above 5 µM in test [1], below 2 µM in test [2], below 2 µM in test [3] and below 2 µM in test [4]. The Emax in test [1] was below 25%; in test [2], 25 to 100%; in test [3] it was 25 to 100%; in test [4], 25 to 100%.

Take `CC(C)(C)CCN1CCC2(CC[C@H](N3CCCCC3=O)c3ccccc32)CC1` [compound 57]: the EC50 in test [1] was above 5 µM; in test [2], above 5 µM; in test [3] it was 2 to 5 µM; in test [4], below 2 µM. Besides, the Emax is below 25% in test [1], below 25% in test [2], 25 to 100% in test [3] and 25 to 100% in test [4].

Regarding `Cn1cc(C(=O)N[C@H]2CCC3(CCN(CCC(C)(C)C)CC3)c3ccccc32)cn1` [compound 58], the concentration for a half-maximal effect (EC50) in test [1] was above 5 µM; in test [2], below 2 µM; in test [3] it was below 2 µM; in test [4] it was below 2 µM. The Emax is below 25% in test [1], 25 to 100% in test [2], 25 to 100% in test [3] and 25 to 100% in test [4].

In the case of `CC(=O)N1CCCC(C(=O)N[C@H]2CCC3(CCN(CCC(C)(C)C)CC3)c3cc(F)ccc32)C1` (stereo partly shown) [compound 59], the EC50 is above 5 µM in test [1], 2 to 5 µM in test [2], below 2 µM in test [3] and below 2 µM in test [4]. The Emax in test [1] is below 25%; in test [2], below 25%; in test [3], 25 to 100%; in test [4] it was 25 to 100%.

By EC50 is commonly meant the concentration giving half of the maximal effect.
